According to patent US11395857B2, “Radiolabeled melanocortin 1 receptor-specific alpha-melanocyte-stimulating hormone analogues for imaging or therapy” (PROVINCIAL HEALTH SERVICES AUTHORITY, priority 2018, dated 2022):

Key:
in vivo = conditions: male, NRG (NOD.Cg-Rag1tm1Mom Il2rgtm1Wjl/SzJ), mouse, total radioactivity
Protocol: (§1) The SK-MEL-1 human melanoma cell line (HTB-67) was obtained commercially from ATCC. SK-MEL-1 cells were cultured in Eagle's Minimum Essential Medium (StemCell Technologies) under the same conditions as described in Example 1. Immunodeficient NOD.Cg-Rag1tm1Mom I12rgtm1Wjl/SzJ (NRG) male mice were obtained from an in-house breeding colony at the BC Cancer Research Centre. For tumor implantation, male NRG mice were anesthetized by inhalation with 2% isoflurane, and 5 million SK-MEL-1 cells were inoculated subcutaneously on the right dorsal flank. Mice were used for imaging or biodistribution studies when the tumors reached 6-8 mm in diameter in 16-20 days.
(§2) Biodistribution studies were performed as described in Example 3.

SK-MEL-1 human melanoma [1] = experiment: Radioligand therapy of SK-MEL-1 human melanoma-bearing mice; type: in vivo, NRG mice; conditions: radiotherapy group, 26.7±3.6 MBq/mouse
Protocol: For radioligand therapy, SK-MEL-1 human melanoma-bearing mice were injected with saline (control group, n=5), non-radioactive lutetium coupled CCZ01158 (cold std, n=4), and [^177Lu]Lu-CCZ01158 (26.7±3.6 MBq/mouse, n=4). Tumour size and body weight were measured every 2-4 days from the date of injection. Endpoint was defined as >15% weight loss, ulceration of tumours, or tumour volume >1000 mm^3 (Volume=width×width×length/2, measured with calliper). […] This confirms the effectiveness of the ^177Lu radiotherapy with CCZ01158 as the melanoma targeting molecule. […] All mice were euthanized when the tumours reached over 1000 mm^3, except for one mouse due to weight loss in the saline group, and one mouse due to tumour ulceration in the cold std group.

SK-MEL-1 human melanoma [2] = experiment: Biodistribution of 177Lu-labeled αMSH analogues in mice bearing SK-MEL-1 human melanoma; conditions: compared to the other two analogues
Protocol: as §1, §2

[3] = as above; conditions: male, mouse, total radioactivity
Protocol: as §1, §2

[4] = NRG (NOD.Cg-Rag1tm1Mom I12rgtm1Wjl/SzJ), fat, iv
[5] = NRG (NOD.Cg-Rag1tm1Mom I12rgtm1Wjl/SzJ), seminal glands, iv
[6] = NRG (NOD.Cg-Rag1tm1Mom Il2rgtm1Wjl/SzJ), SK-MEL-1 tumour
[7] = NRG (NOD.Cg-Rag1tm1Mom Il2rgtm1Wjl/SzJ), adrenal glands
[8] = NRG (NOD.Cg-Rag1tm1Mom Il2rgtm1Wjl/SzJ), blood
[9] = NRG (NOD.Cg-Rag1tm1Mom Il2rgtm1Wjl/SzJ), bone
[10] = NRG (NOD.Cg-Rag1tm1Mom Il2rgtm1Wjl/SzJ), brain
[11] = NRG (NOD.Cg-Rag1tm1Mom Il2rgtm1Wjl/SzJ), heart
[12] = NRG (NOD.Cg-Rag1tm1Mom Il2rgtm1Wjl/SzJ), intestine
[13] = NRG (NOD.Cg-Rag1tm1Mom Il2rgtm1Wjl/SzJ), kidneys
[14] = NRG (NOD.Cg-Rag1tm1Mom Il2rgtm1Wjl/SzJ), liver
[15] = NRG (NOD.Cg-Rag1tm1Mom Il2rgtm1Wjl/SzJ), lungs
[16] = NRG (NOD.Cg-Rag1tm1Mom Il2rgtm1Wjl/SzJ), muscle
[17] = NRG (NOD.Cg-Rag1tm1Mom Il2rgtm1Wjl/SzJ), pancreas
[18] = NRG (NOD.Cg-Rag1tm1Mom Il2rgtm1Wjl/SzJ), spleen
[19] = NRG (NOD.Cg-Rag1tm1Mom Il2rgtm1Wjl/SzJ), stomach
[20] = NRG (NOD.Cg-Rag1tm1Mom Il2rgtm1Wjl/SzJ), testes
[21] = NRG (NOD.Cg-Rag1tm1Mom Il2rgtm1Wjl/SzJ), thyroid
[22] = NRG (NOD.Cg-Rag1tm1Mom Il2rgtm1Wjl/SzJ), urine

tissue to tissue ratio at 1 h (in vivo; Tumour/blood): 0.69 ± 0.08
tissue to tissue ratio at 4 h (in vivo; Tumour/blood): 2.24 ± 0.36
tissue to tissue ratio at 24 h (in vivo; Tumour/blood): 62.8 ± 26.4
tissue to tissue ratio at 120 h (in vivo; Tumour/blood): 436 ± 64.7
tissue to tissue ratio at 1 h (in vivo; Tumour/muscle): 7.99 ± 1.03
tissue to tissue ratio at 4 h (in vivo; Tumour/muscle): 23.6 ± 4.32
tissue to tissue ratio at 24 h (in vivo; Tumour/muscle): 245 ± 48
tissue to tissue ratio at 120 h (in vivo; Tumour/muscle): 394 ± 42.9
tissue uptake at 1 h [3, 4]: 2.24 ± 0.49 %ID/g
tissue uptake at 4 h [3, 4]: 1.85 ± 0.53 %ID/g
tissue uptake at 24 h [3, 4]: 0.3 ± 0.07 %ID/g
tissue uptake at 120 h [3, 4]: 0.2 ± 0.08 %ID/g
tissue uptake at 1 h [3, 5]: 1.8 ± 0.79 %ID/g
tissue uptake at 4 h [3, 5]: 0.79 ± 0.13 %ID/g
tissue uptake at 24 h [3, 5]: 0.15 ± 0.07 %ID/g
tissue uptake at 120 h [3, 5]: 0.11 ± 0.06 %ID/g
tissue uptake at 1 h [3, 6]: 13.3 ± 2.94 %ID/g
tissue uptake at 4 h [3, 6]: 24.3 ± 5.04 %ID/g
tissue uptake at 24 h [3, 6]: 29.7 ± 4.29 %ID/g
tissue uptake at 120 h [3, 6]: 19.3 ± 7.95 %ID/g
tissue uptake at 1 h [3, 7]: 5.1 ± 1.69 %ID/g
tissue uptake at 4 h [3, 7]: 3.54 ± 1.01 %ID/g
tissue uptake at 24 h [3, 7]: 1.68 ± 0.93 %ID/g
tissue uptake at 120 h [3, 7]: 1.36 ± 1.56 %ID/g
tissue uptake at 1 h [3, 8]: 19.1 ± 3.57 %ID/g
tissue uptake at 4 h [3, 8]: 10.8 ± 0.87 %ID/g
tissue uptake at 24 h [3, 8]: 0.54 ± 0.24 %ID/g
tissue uptake at 120 h [3, 8]: 0.04 ± 0.01 %ID/g
tissue uptake at 1 h [3, 9]: 1.36 ± 0.32 %ID/g
tissue uptake at 4 h [3, 9]: 0.8 ± 0.24 %ID/g
tissue uptake at 24 h [3, 9]: 0.24 ± 0.15 %ID/g
tissue uptake at 120 h [3, 9]: 0.23 ± 0.09 %ID/g
tissue uptake at 1 h [3, 10]: 0.33 ± 0.1 %ID/g
tissue uptake at 4 h [3, 10]: 0.2 ± 0.01 %ID/g
tissue uptake at 24 h [3, 10]: 0.04 ± 0.02 %ID/g
tissue uptake at 120 h [3, 10]: 0.03 ± 0.02 %ID/g
tissue uptake at 1 h [3, 11]: 4.7 ± 0.7 %ID/g
tissue uptake at 4 h [3, 11]: 2.84 ± 0.4 %ID/g
tissue uptake at 24 h [3, 11]: 0.5 ± 0.2 %ID/g
tissue uptake at 120 h [3, 11]: 0.3 ± 0.13 %ID/g
tissue uptake at 1 h [3, 12]: 2.07 ± 0.42 %ID/g
tissue uptake at 4 h [3, 12]: 1.32 ± 0.2 %ID/g
tissue uptake at 24 h [3, 12]: 0.51 ± 0.52 %ID/g
tissue uptake at 120 h [3, 12]: 0.28 ± 0.11 %ID/g
tissue uptake at 1 h [3, 13]: 11.3 ± 2.81 %ID/g
tissue uptake at 4 h [3, 13]: 11.3 ± 1.38 %ID/g
tissue uptake at 24 h [3, 13]: 8.29 ± 1.94 %ID/g
tissue uptake at 120 h [3, 13]: 3.26 ± 1.6 %ID/g
tissue uptake at 1 h [3, 14]: 7.24 ± 2.38 %ID/g
tissue uptake at 4 h [3, 14]: 6.37 ± 1.33 %ID/g
tissue uptake at 24 h [3, 14]: 4.45 ± 2.6 %ID/g
tissue uptake at 120 h [3, 14]: 3.85 ± 1.63 %ID/g
tissue uptake at 1 h [3, 15]: 11.2 ± 2.91 %ID/g
tissue uptake at 4 h [3, 15]: 6.81 ± 1.45 %ID/g
tissue uptake at 24 h [3, 15]: 1.55 ± 1.22 %ID/g
tissue uptake at 120 h [3, 15]: 2.15 ± 2.57 %ID/g
tissue uptake at 1 h [3, 16]: 1.67 ± 0.35 %ID/g
tissue uptake at 4 h [3, 16]: 1.03 ± 0.06 %ID/g
tissue uptake at 24 h [3, 16]: 0.13 ± 0.04 %ID/g
tissue uptake at 120 h [3, 16]: 0.05 ± 0.02 %ID/g
tissue uptake at 1 h [3, 17]: 1.87 ± 0.3 %ID/g
tissue uptake at 4 h [3, 17]: 1.22 ± 0.08 %ID/g
tissue uptake at 24 h [3, 17]: 0.27 ± 0.13 %ID/g
tissue uptake at 120 h [3, 17]: 0.16 ± 0.07 %ID/g
tissue uptake at 1 h [3, 18]: 3.9 ± 1.66 %ID/g
tissue uptake at 4 h [3, 18]: 2.5 ± 0.5 %ID/g
tissue uptake at 24 h [3, 18]: 1.89 ± 0.85 %ID/g
tissue uptake at 120 h [3, 18]: 4.6 ± 3.88 %ID/g
tissue uptake at 1 h [3, 19]: 0.85 ± 0.29 %ID/g
tissue uptake at 4 h [3, 19]: 0.66 ± 0.12 %ID/g
tissue uptake at 24 h [3, 19]: 1.07 ± 1.42 %ID/g
tissue uptake at 120 h [3, 19]: 1.24 ± 0.65 %ID/g
tissue uptake at 1 h [3, 20]: 2.99 ± 0.56 %ID/g
tissue uptake at 4 h [3, 20]: 2.8 ± 0.12 %ID/g
tissue uptake at 24 h [3, 20]: 0.92 ± 0.26 %ID/g
tissue uptake at 120 h [3, 20]: 0.56 ± 0.25 %ID/g
tissue uptake at 1 h [3, 21]: 5.57 ± 0.79 %ID/g
tissue uptake at 4 h [3, 21]: 5.74 ± 0.74 %ID/g
tissue uptake at 24 h [3, 21]: 5.04 ± 1.22 %ID/g
tissue uptake at 120 h [3, 21]: 5.4 ± 2.58 %ID/g
tissue to tissue ratio at 1 h ([3]; NRG (NOD.Cg-Rag1tm1Mom Il2rgtm1Wjl/SzJ), tumour/kidney, 1 h p.i., NRG mice, SK-MEL-1 melanoma): 1.18 ± 0.11
tissue to tissue ratio at 4 h ([3]; NRG (NOD.Cg-Rag1tm1Mom Il2rgtm1Wjl/SzJ), tumour/kidney, 4 h p.i., NRG mice, SK-MEL-1 melanoma): 2.14 ± 0.26
tissue to tissue ratio at 24 h ([3]; NRG (NOD.Cg-Rag1tm1Mom Il2rgtm1Wjl/SzJ), tumour/kidney, 24 h p.i., NRG mice, SK-MEL-1 melanoma): 3.68 ± 0.6
tissue to tissue ratio at 120 h ([3]; NRG (NOD.Cg-Rag1tm1Mom Il2rgtm1Wjl/SzJ), tumour/kidney, 120 h p.i., NRG mice, SK-MEL-1 melanoma): 6.17 ± 1.09
excreta dose per gram or mL at 1 h [3, 22]: 214 ± 57.6 %ID/g
excreta dose per gram or mL at 4 h [3, 22]: 258 ± 66.2 %ID/g
excreta dose per gram or mL at 24 h [3, 22]: 21.8 ± 4.6 %ID/g
excreta dose per gram or mL at 120 h [3, 22]: 3.56 ± 1.16 %ID/g
SMILES: CCCC[C@H](NC(=O)CN1CCC(NC(=O)[C@H](CCCCNC(=O)CN2CCN(CC(=O)O)CCN(CC(=O)O)CCN(CC(=O)O)CC2)NC(=O)CNC(=O)CCCc2ccc(-c3ccc(C)cc3)cc2)CC1)C(=O)N[C@H]1CC(=O)NCCCC[C@@H](C(N)=O)N(C)C(=O)[C@H](Cc2c[nH]c3ccccc23)NC(=O)[C@H](CCCNC(=N)N)N(C)C(=O)[C@@H](Cc2ccccc2)NC(=O)[C@H](Cc2c[nH]cn2)NC1=O [^177Lu-labeled CCZ01158, metal not drawn]
Adverse effects (SK-MEL-1 human melanoma [1]): No obvious adverse effects were observed
Overall comparison of tumour uptake and tumour to background contrast (SK-MEL-1 human melanoma [2]): superior due to high and sustained tumour uptake, as well as superior tumour to background contrast
